How the values were obtained:
[1] = test system: CYP26; conditions: cited from earlier work
[2] = test system: hPSC-derived vMB progenitors; assay: Neurogenesis and mDA neuron yield in differentiating hPSC cultures (HuCD, TuJ1, TH, GABA immunocytochemistry, electrophysiology); assay type: cell-based, human
Text: A unique feature of mDA neurons is that they originate from initially non-neuronal floor plate (FP) cells at the ventral midline of the MB, and progenitors must acquire neuronal potential prior to differentiation into neurons^30,44. Few markers distinguish between these states, but downregulation of SHH and upregulation pro-neural bHLH proteins over time correlate with this transition^44. […] In RA^2D+SAG cultures at 21 DDC, ˜30% of DAPI^+ cells accounted for HuCD^+ neurons (FIG. 4d) and many of these had initiated expression of TH (FIG. 4c). When we instead used CHIR99021+SAG to specify LMX1A^+/NKX2.1^− vMB progenitors (FIG. 3b), cells initiated neurogenesis at around 17 DDC (FIG. 4c, d) which is consistent with previous studies^9,13. At 21 DDC, HuCD^+ neurons constituted ˜10% of total cells and few neurons expressed TH (FIG. 4c, d).
TH^+ neurons acquired a progressively more advanced neuronal morphology with a progressive outgrowth of TH^+ axonal processes in RA^2D+SAG cultures between 30-45 DDC (FIG. 4e, g, h; FIG. 8f (Supplementary FIG. 2f)). TH^+ neurons expressed mDA neuron markers LMX1A, LMX1B, FOXA2, NURR1, and OTX2 at 30-35 DDC (FIG. 4e). […] TH^+ neurons also expressed the mature neuronal marker SYNAPTOPHYSIN and the monoaminergic marker VMAT2 (FIG. 40. A subset of cells expressed GIRK2 or CALBINDIN indicating the presence of both A9- and A10-like subtypes of mDA neurons^45 (FIG. 4f). At 35 DDC, ˜80% of neurons expressed TH^+ which corresponded to ˜65% of total DAPI^+ cells (FIG. 4i, j). ˜10% of neurons expressed GABA (FIG. 4i, j), and some of these co-expressed TH (FIG. 10c (Supplementary FIG. 4c)). Only rare neurons expressing 5-HT or the MN marker PERIPHERIN were detected (FIG. 4i, j). High performance liquid chromatography (HPLC) analyses at 42 DDC established that neurons produced and released dopamine (FIG. 4k, I) but not serotonin (5-HT) or noradrenaline (NA) (FIG. 4k). […] Very few cells expressed Ki67 or phospho-histone H3 at 35-40 DDC indicating low mitotic activity after long-term culturing of cells (FIG. 4i). Functional maturation of mDA neurons in vitro can be monitored by determining the time when hPSC-derived mDA neurons acquire spontaneous action potentials, evoked action potentials and voltage-dependent Na^+ and K^+ currents, and these traits were previously reported to be attained after ˜60 days of culture of FACS-enriched mDA neurons (25+36 days: before/after sorting) using current state-of-the-art protocols^7. […] Neurons showing both spontaneous (FIG. 4m) and evoked action potentials (FIG. 4n) could be recorded at 40 DDC.
80-90% confluent PSCs cultures were rinsed twice with PBS, treated with EDTA (0.5 mM in PBS) for 5-7 min, and resuspended into single cell suspension in PBS. Cells were spin down at 400 g and resuspended in N2B27 medium (DMEM/F12: Neurobasal (1:1), 0.5×N2 and 0.5×B27 (plus vitamin A) supplements, 1×nonessential amino acids, 1% GlutaMAX, 55 μM β-mercaptoethanol-all from Thermo Fisher Scientific) containing 5 μM SB431542 (Miltenyi Biotech) and 2.5 μM DMH1 (Santa Cruz Biotech) (dual SMAD inhibition), and 10 μM ROCK inhibitor (for the first 48 hours after seeding). Cells were seeded on VTN (2 μg/cm^2) and Fibronectin (FN) (2 μg/cm^2) (Sigma) coated surface at a density of 60,000-80,000 cells/cm^2 for RA- and RA-analogues based experiments, and 20,000 cells/cm^2 for CHIR99021 experiments. SAG1.3 (Santa Cruz Biotechnology), CHIR99021 (Miltenyi Biotech), all-trans RA, 9-cis RA, 13-cis RA, Tazarotenic acid, R115866 (all Sigma), EC23 (Amsbio) were used at concentrations and time points described in the result section. For mDA neuron differentiation (see schematic drawing FIG. 4) neural progenitors were mechanically dissociated at 9 DDC with Stem Cell Passaging Tool (Thermo Fisher Scientific) and seeded at 1:3 ratio in N2B27 medium containing 10 μM ROCK inhibitor (for first 48 hours after dissociation) on VTN and FN coated surfaces. […]

In the case of CC1=C(/C=C/C(C)=C/C=C/C(C)=C/C(=O)O)C(C)(C)CCC1 [RA, all-trans retinoic acid], the “susceptibility to CYP26-mediated oxidation” value [1] is given as “substrates for CYP26-mediated oxidation”, the “share of cell population that are ventral midbrain dopaminergic progenitor cells (FOXA2, LMX1A, LMX1B, OTX2)” value ([2]; 14 DDC, immunocytochemistry) is given as “about 80%” and the “HuCD+ neurons as share of total DAPI+ cells” value ([2]; 21 DDC, with SAG) is given as ~30%. For the same compound, the “TH+ cells of total DAPI+ cells” value ([2]; RA^2D+SAG, 35 DDC) was ~65%, the “neurons expressing GABA” value ([2]; RA^2D+SAG, 35 DDC) was ~10% and the “neurons expressing TH” value ([2]; RA^2D+SAG, 35 DDC, of neurons) was ~80%. For the same compound, the “culture time to mDA neurons exhibiting mature functional features” value ([2]; RA^2D+SAG, spontaneous and evoked action potentials) was 40 days and the “time of initiation of neurogenesis (first neurons)” value ([2]; with SAG) was 12 DDC.

— patent publication US20230233617A1, “METHODS FOR DIFFERENTIATING STEM CELLS INTO DOPAMINERGIC PROGENITOR CELLS” (JZ CELL TECHNOLOGIES AB, priority 2020, published 2023)
